Assay results: PubChem BioAssay AID1996
Converted amounts (≈) assume the structure as drawn.

Details: buffer; pH 7.4; 200.0 µM

solubility kinetic	SMILES
35.7 µg/mL (≈ 135 µM)	COc1ccc(C(=O)NCC2CCCO2)cc1OC (stereo unspecified)
55.8 µg/mL (≈ 139 µM)	Cc1cnc(C(=O)N2CCN(S(=O)(=O)c3ccc(F)c(F)c3F)CC2)cn1
1 µg/mL (≈ 2.92 µM)	Cc1ccc2[nH]c(=O)c3cc(C(=O)NCC4CCCO4)sc3c2c1 (stereo unspecified)
< 0.7 µg/mL	O=C(O/N=C1/CCCc2occc21)c1ccc(Cl)cc1Cl
> 49.9 µg/mL	O=C(C(=O)N1CCCCC1)c1c(-c2ccccc2)[nH]c2ccccc12
28 µg/mL (≈ 139 µM)	Cc1cccc(-c2nc(N)nc(N)n2)c1
18.1 µg/mL (≈ 64.1 µM)	O=C(CC1CCCC1)Nc1cccc(Br)c1
1.2 µg/mL (≈ 3.36 µM)	O=C(NCCC1=CCCCC1)c1cc(-c2ccncc2)nc2ccccc12
36.4 µg/mL (≈ 133 µM)	Cc1cc(C)nc(N2CCC(C(=O)NC3CC3)CC2)n1
> 39.1 µg/mL	O=C(Cc1ccccc1)NCC(=O)N1CCCCC1
> 42.3 µg/mL	Cc1sc(NC(=O)C2=COCCO2)c(C(N)=O)c1C
> 43.4 µg/mL	Nc1cc(C(=O)O)ccc1Sc1ccccc1C(=O)O
20.6 µg/mL (≈ 63.9 µM)	CC(NC(=O)c1ccccc1Br)C1CC2CCC1C2 (stereo unspecified)
> 50.3 µg/mL	O=C(CN1CCN(Cc2ccccc2F)C1=O)NCC1CCCO1 (stereo unspecified)
17.9 µg/mL (≈ 61.9 µM)	CCc1ccc(C(=O)OCC(=O)NCC(F)(F)F)cc1
21.5 µg/mL (≈ 68.5 µM)	OCCCNc1nc(-c2ccccc2)c2cc(Cl)ccc2n1
7.9 µg/mL (≈ 24.7 µM)	CCOc1ccccc1NC(=O)Nc1ccsc1C(=O)OC
3.5 µg/mL (≈ 12.6 µM)	CC(=O)c1c[nH]c(C(=O)NCc2ccccc2Cl)c1
21.1 µg/mL (≈ 68.4 µM)	O=C(Nc1cccc(C(=O)NC2CCCC2)c1)c1ccccc1
> 52.3 µg/mL	Cc1nc(S(=O)(=O)Nc2ccccc2C(=O)NCC2CC2)cn1C
> 45.3 µg/mL	O=C(O)c1ccccc1Nc1ccc([N+](=O)[O-])cc1C(=O)O
1.4 µg/mL (≈ 4.48 µM)	CC(C)Oc1cc(C(=O)NC2CCCCC2)c2ccccc2n1
> 43.2 µg/mL	O=S(=O)(NC1=NCCCCC1)c1ccc(F)cc1F

solubility kinetic	SMILES
57.4 µg/mL (≈ 147 µM)	O=C(Nc1ccc(C(=O)c2ccc(C(=O)O)c(C(=O)O)c2)cc1)c1ccccc1
> 49.6 µg/mL	CS(=O)(=O)N1CCC(C(=O)NCc2ccc(Cl)cc2)CC1
6.3 µg/mL (≈ 25 µM)	CC(=O)Nc1cccc(-c2nc3ccccc3o2)c1
35.7 µg/mL (≈ 118 µM)	COc1cc2c(cc1OC)CN(Cc1ccc(F)cc1)CC2
> 48.2 µg/mL	COc1cccc(S(=O)(=O)Nc2ccc3c(c2)OCCO3)c1
> 52.4 µg/mL	CCNC(=O)COC(=O)c1cc(-c2ccccc2)nn1-c1ccccc1
7.7 µg/mL (≈ 26.4 µM)	CCOc1ccccc1NC(=O)c1cccc2ccccc12
13 µg/mL (≈ 44 µM)	CC(C)N(Cc1ccccc1)S(=O)(=O)c1cccs1
> 50.9 µg/mL	COc1ccccc1N1CCN(/N=C/c2ccccc2C(=O)O)CC1
29.7 µg/mL	CC(CCN1CCN(c2ccccc2)CC1)c1ccccc1.Cl (stereo unspecified)
> 43.1 µg/mL	COC(=O)C(C)NC(=O)COc1ccc2ccccc2c1 (stereo unspecified)
> 29 µg/mL	Cc1ccccc1C(=O)NCC(=O)O
0.4 µg/mL (≈ 1.17 µM)	CN(c1ccccc1)c1cc(Br)nc(Br)c1
4.6 µg/mL (≈ 14.9 µM)	Cc1ccc(C(=O)NCC(=O)Nc2ccc(Cl)cc2)s1
> 50 µg/mL	CC1CCN(C(=O)c2ccc(N3CCOCC3)c([N+](=O)[O-])c2)CC1
> 27.9 µg/mL	CCOC(=O)c1c[nH]c(=S)n1C
28.5 µg/mL (≈ 105 µM)	O=C1CCC(=O)N1CC(=O)N1CCCc2ccccc21
10.4 µg/mL (≈ 34.3 µM)	Cc1ccsc1C(=O)OCC(=O)NCCc1ccccc1
> 43.9 µg/mL	CCCC1(c2ccccc2)NC(=O)N(C/C=C/Cl)C1=O (stereo unspecified)
3.5 µg/mL (≈ 7.63 µM)	O=C(COC(=O)c1cc(Cl)ccc1O)Nc1cc(C(F)(F)F)ccc1N1CCOCC1
> 53 µg/mL	CCCCNC(=O)c1ccc(CS(=O)(=O)Cc2ccccc2F)o1
> 42.8 µg/mL	NC(=O)COC(=O)c1ccccc1OCc1ccccc1
3.1 µg/mL (≈ 10.9 µM)	Cc1ccc(C(=O)N2CC=C(c3ccccc3)CC2)s1

solubility kinetic	SMILES
> 45.9 µg/mL	Cn1c(=O)[nH]c(NCCc2ccc(O)cc2)c([N+](=O)[O-])c1=O
31.3 µg/mL (≈ 126 µM)	Cc1ccnc(NS(=O)(=O)c2ccccc2)c1
> 44.3 µg/mL	CC(NC(=O)c1ccc(F)cc1)C(=O)NC1=NCCS1 (stereo unspecified)
27.7 µg/mL (≈ 79 µM)	CC(C)CC1C2C(=O)N(c3ccccc3)C(=O)C2ON1c1ccccc1 (stereo unspecified)
41.8 µg/mL (≈ 108 µM)	COc1ccccc1-n1c(SCC(=O)O)nc2sc3c(c2c1=O)CCC3
> 52.7 µg/mL	Cc1noc(NS(=O)(=O)c2ccc(NC(=O)CC(C)C)cc2)c1C
0.4 µg/mL (≈ 1.26 µM)	Cc1cc(C)c2c(N)c(C(=O)c3ccccc3Cl)sc2n1
> 42.3 µg/mL	CC1=C([N+](=O)[O-])C(c2ccccc2Cl)NC(=O)N1C (stereo unspecified)
31 µg/mL (≈ 118 µM)	CC1(C)Cc2ccccc2C(C(=O)c2ccccc2)=N1
2.7 µg/mL (≈ 8.3 µM)	C=CCOc1ccc(CNc2ccc3[nH]c(=O)[nH]c3c2)cc1OC
31.9 µg/mL	COc1ccc2c(c1)c(C)cc[n+]2Cc1ccccc1.[Cl-]
44.4 µg/mL (≈ 143 µM)	CCOC(=O)CCCNC(=O)COC(=O)c1cccc(F)c1
6.2 µg/mL (≈ 18.4 µM)	O=C(NC1CCN(C(=O)NCc2ccccc2)CC1)c1ccccc1
> 34.5 µg/mL	CCOC(=O)CCn1cc(F)c(=O)[nH]c1=O
10.2 µg/mL (≈ 35.9 µM)	O=C1N=C(N2CCCC2)S/C1=C\C=C\c1ccccc1
13.6 µg/mL (≈ 39.7 µM)	CC(C)S(=O)(=O)c1csc(C(=O)Nc2ccc(F)cc2)c1N
> 36.5 µg/mL	COC(=O)c1cc(C(=O)Cc2ccccc2)c[nH]1
38.7 µg/mL (≈ 114 µM)	CN(Cc1ccccc1)c1ccc(N2C(=O)CCC2=O)cc1[N+](=O)[O-]
39.7 µg/mL (≈ 137 µM)	COc1ccc(NC(=O)CNC(=O)C2CCCCC2)cc1
> 51.5 µg/mL	CC(NC(=O)COC(=O)C1CC2CCCC(C1)C2=O)c1ccccc1 (stereo unspecified)
> 54.2 µg/mL	CCOCCCNC(=O)c1oc2ccc3c(c2c1C)C(O)CC(C)(C)O3 (stereo unspecified)
36.2 µg/mL (≈ 149 µM)	COCCNc1ncnc2c1[nH]c1ccccc12
> 48.4 µg/mL	CC(=O)C(CC(=O)N1CCCC1)C(=O)Nc1ccc(Cl)cc1 (stereo unspecified)

solubility kinetic	SMILES
21.5 µg/mL (≈ 85.2 µM)	CCN1c2ccccc2N(C)C1(C)c1ccccc1 (stereo unspecified)
6.7 µg/mL (≈ 21.3 µM)	Cc1ccc(-c2nc(=O)[nH]c3ccc(Br)cc23)cc1
> 49.4 µg/mL	O=C(O)c1cc(S(=O)(=O)NCCN2CCNC2=O)ccc1O
> 39.6 µg/mL	CCN(CC)Cc1ccc(OC)c(Cl)c1.Cl
3.2 µg/mL (≈ 13.8 µM)	Nc1nccc(/C=C/c2ccc(Cl)cc2)n1
11.2 µg/mL (≈ 39.8 µM)	COc1ccc(N2C(=O)CC(c3ccccc3)C2=O)cc1 (stereo unspecified)
> 42.3 µg/mL	CCc1c(C)sc(NC(=O)/C=C/C(=O)O)c1C(N)=O
> 50.2 µg/mL	CSc1ccc(CN2CCN(CC=C(C)C)C(CCO)C2)cc1 (stereo unspecified)
43.4 µg/mL (≈ 132 µM)	CCOc1cc(CN2CCN(c3ncccn3)CC2)ccc1OC
48.9 µg/mL (≈ 141 µM)	COc1ccc(C2CC(=O)N(c3ccccc3)C3=C2C(=O)CCC3)cc1 (stereo unspecified)
20.7 µg/mL (≈ 75.2 µM)	CSc1nc(-c2ccccc2F)c(C#N)c(=O)n1C
7 µg/mL (≈ 24.2 µM)	Nc1nc2ncc(C(=O)c3cc(F)ccc3O)cc2s1
3.9 µg/mL (≈ 10.1 µM)	CC(=O)Nc1ccc(SCC(=O)Nc2ccccc2N2CCOCC2)cc1
> 39.5 µg/mL	CNC(=S)NCCc1c[nH]c2ccc(OC)cc12
10.4 µg/mL (≈ 30.6 µM)	COc1cc(NC(=O)c2ccc(N3CCCC3=O)cc2)cc(OC)c1
40.1 µg/mL (≈ 135 µM)	O=C(Cc1c(Cl)cccc1Cl)OCc1ccccn1
52.1 µg/mL (≈ 139 µM)	COCCCNC(=O)c1ccc(C2SCC(=O)N2Cc2ccco2)cc1 (stereo unspecified)
> 42 µg/mL	Cn1c(CO)cnc1SCC(=O)c1ccc(F)cc1
> 41.3 µg/mL	NC(=O)c1ccc(NC(=S)NCc2ccco2)cc1
5.5 µg/mL (≈ 17.3 µM)	O=C(Cc1ccccc1)Nc1cc2c(cc1Cl)OCCCO2
1.9 µg/mL (≈ 5.5 µM)	Cc1ccc(NC(=O)c2cccnc2C(=O)Nc2ccc(C)cc2)cc1
15 µg/mL (≈ 44.7 µM)	CCOc1ncccc1C(=O)OCC(=O)Nc1ccc(Cl)cn1
< 0.4 µg/mL	O=C(CN1CCOCC1)Nc1scc2c1c(=O)oc1ccccc12

solubility kinetic	SMILES
43.4 µg/mL (≈ 138 µM)	N#Cc1ccccc1S(=O)(=O)Nc1ccc2c(c1)C(=O)OC2
31.8 µg/mL (≈ 116 µM)	CNc1nc(-c2c(C)[nH]c3ccc(OC)cc23)cs1
45.4 µg/mL (≈ 139 µM)	COc1ccccc1N1CN(CCc2ccccc2)CNC1=S
> 46.3 µg/mL	Cc1ccccc1NC(=O)C(C)N1C(=O)c2ccccc2C1=O (stereo unspecified)
> 41.1 µg/mL	CC(=O)Nc1c(C)nn(-c2ccc([N+](=O)[O-])cc2)c1C
41.5 µg/mL (≈ 132 µM)	Cc1ccc(C)c(NC(=O)C2CC(=O)N(C3CCCCC3)C2)c1 (stereo unspecified)
0.5 µg/mL (≈ 1.6 µM)	CCC(C)c1ccc(NC(=O)c2[nH]c(C)c(C(C)=O)c2C)cc1 (stereo unspecified)
> 38.6 µg/mL	O=C(C[n+]1cc[nH]c1)c1ccc(Cl)cc1.[Cl-]
> 42 µg/mL	COc1nccnc1NS(=O)(=O)c1ccc(N)cc1
> 41.3 µg/mL	Cc1cccnc1NC(=O)CNC(=O)c1cccs1
2.6 µg/mL (≈ 7.99 µM)	COC(=O)c1ccc(CN(C)S(=O)(=O)c2cccs2)cc1
33.1 µg/mL (≈ 148 µM)	O=C(C(Cl)c1ccccc1)N1CCCC1 (stereo unspecified)
> 46.3 µg/mL	O=C(CSc1nc2ccccc2s1)NCC1CCCO1 (stereo unspecified)
13.5 µg/mL (≈ 41.9 µM)	CCOC(=O)c1sc(NC(=O)C2=COCCO2)c(C#N)c1C
< 0.6 µg/mL	C=CCN1C(=O)/C(=C/c2ccsc2)SC1=S
> 49.2 µg/mL	O=C(Cc1ccccc1)NCC(=O)OCc1cccc([N+](=O)[O-])c1
7.1 µg/mL (≈ 18.8 µM)	COC(=O)c1ccc(CNC(=O)COC(=O)c2cc(Cl)ccc2O)cc1
33.5 µg/mL (≈ 99.3 µM)	CCCCC(CC)CNC(=O)Cn1c(=O)[nH]c2ccsc2c1=O (stereo unspecified)
> 53.2 µg/mL	Cc1ccc(C(=O)N/C(=C\c2ccco2)C(=O)N2CCOCC2)cc1C
> 40.7 µg/mL	Cc1[nH]c2ccc(C(=O)N3CCN(C)CC3)cc2c1C
38.8 µg/mL (≈ 144 µM)	COC(=O)c1scc(C)c1NC(=O)/C=C/C(=O)O
> 46.3 µg/mL	O=C(NCCc1ccccc1)c1cccc(N2CCCC2=O)c1

SMILES	solubility kinetic
N#CC1=C(N)Oc2c(c(=O)sc3ccccc23)C1c1ccncc1 (stereo unspecified)	3.6 µg/mL (≈ 10.8 µM)
Cc1ccc(OCCN2CCCC2)cc1.O=C(O)C(=O)O	> 44.3 µg/mL
CC(C)c1ccc(OCC(=O)N2CCCN(C)CC2)cc1	> 43.6 µg/mL
N=C1c2ccccc2CN1c1cccc([N+](=O)[O-])c1	> 38 µg/mL
c1ccc(P(c2ccccc2)c2ccccn2)cc1	10 µg/mL (≈ 38 µM)
Cc1ccc(S(=O)(=O)N2CCOCC2)cc1NC(=O)CNC(C)c1ccccc1.O=C(O)C(=O)O (stereo unspecified)	74.1 µg/mL
C=CC1CN2CCC1CC2C(OC(C)=O)c1ccnc2ccc(OC)cc12 (stereo unspecified)	> 55 µg/mL
